We go through one compound from patent publication US8721963B2, “Cold sterilization of tissue engineering scaffolds with compressed carbon dioxide” (University of South Carolina, priority 2010, dated 2014).

The structures appear in SMILES notation.

The test system of experiment [1] is Staphylococcus aureus (S. aureus) (ATCC 25923). Nature of the experiment: Inactivation of S. aureus embedded in model hydrogel by SC-CO2 treatment (plate counting). The format is cell-based. Particulars: 27.6 MPa, 40° C. As for the experimental part:
Staphylococcus aureus (S. aureus) (ATCC 25923) and Escherichia coli (E. coli) (ATCC 15597) were used as test microorganisms embedded in the hydrogel to investigate the bacteriocidal activity of pure SC-CO2 or SC-CO2+H2O2. Suspensions of S. aureus and E. coli were prepared for inoculation of the hydrogel. Cultures of these bacteria were preserved on DifcoTM […] soy agar and stored in Petri dishes inside of a refrigerator at 4° C. A fresh colony was transferred aseptically from the agar culture plate into a culture tube containing 30 g/L of sterile tryptone soy broth (TSB). The bacteria were grown to a logarithmic phase in the TSB at 35° C. for 24 hours (Cappuccino and Sherman 2001). A fresh bacterial culture was prepared before every experiment to ensure cell viability. Both S. aureus and E. coli bacteria suspensions were diluted after incubation to a concentration of approximately 107 colony forming units per milliliter (cfu/mL). A Petroff Hausser counting chamber was used to quantify the cfu count in the diluted samples. Also, a standard plate counting technique was followed to verify the original number of cfu. The final number of S. aureus or E. coli generally ranged from 7.6×106 to 2.3×10^8 cfu/mL. The hydrogel was hydrated with the diluted bacteria suspension of either S. aureus or E. coli. For CO2 sterilization experiments, the model gel was hydrated with the diluted bacteria suspension. Typically, 0.1 g of dry powder (absorption capacity of 200 mL H2O/g) was hydrated with steam autoclaved DI water. The hydrated powder was left overnight inside of a refrigerator at 4° C. About 3 g of the completely incorporated hydrated gel were then transferred into a polyallomer centrifuge tube for the CO2 treatment, to be described subsequently. […] A pulverization procedure was followed to quantify the amount of bacteria in the inoculated hydrogel. Bacteria were dislodged from the gel by pulverizing in a Stomacher 400 Circulator (Seward Ltd., United Kingdom) for 10 minutes at 230 revolutions per minute (rpm). The degree of killing was quantified with a standard plate counting technique. The log reduction of bacteria (S. aureus or E. coli) was calculated with equation (1), [formula] For use as negative controls, a quantified amount of inoculated hydrogel (with either S. aureus or E. coli) in a polyallomer centrifuge tube was immersed in a PolyScience laboratory temperature bath (model 9105) at 40° C. for 4 hours. The inoculated hydrogel was removed from the bath, pulverized in the Stomacher 400, and the degree of killing was quantified using the standard plate counting technique.

In experiment [2] the test system is B. atrophaeus spores. The settings on record: 40° C., 27.58 MPa, 4 hours; cited from earlier work.
Experiment [3] deals with Escherichia coli (E. coli) (ATCC 15597). Nature of the experiment: Inactivation of E. coli embedded in model hydrogel by SC-CO2 treatment (plate counting). The settings on record: 27.6 MPa, 40° C., 4 hours. The format is cell-based. How it is done:
Staphylococcus aureus (S. aureus) (ATCC 25923) and Escherichia coli (E. coli) (ATCC 15597) were used as test microorganisms embedded in the hydrogel to investigate the bacteriocidal activity of pure SC-CO2 or SC-CO2+H2O2. Suspensions of S. aureus and E. coli were prepared for inoculation of the hydrogel. Cultures of these bacteria were preserved on DifcoTM […] soy agar and stored in Petri dishes inside of a refrigerator at 4° C. A fresh colony was transferred aseptically from the agar culture plate into a culture tube containing 30 g/L of sterile tryptone soy broth (TSB). The bacteria were grown to a logarithmic phase in the TSB at 35° C. for 24 hours (Cappuccino and Sherman 2001). A fresh bacterial culture was prepared before every experiment to ensure cell viability. […] A Petroff Hausser counting chamber was used to quantify the cfu count in the diluted samples. […] A pulverization procedure was followed to quantify the amount of bacteria in the inoculated hydrogel. […] The degree of killing was quantified with a standard plate counting technique. The log reduction of bacteria (S. aureus or E. coli) was calculated with equation (1), [formula] For use as negative controls, a quantified amount of inoculated hydrogel (with either S. aureus or E. coli) in a polyallomer centrifuge tube was immersed in a PolyScience laboratory temperature bath (model 9105) at 40° C. for 4 hours. […]

Experiment [4] has as its system B. pumilus spores. Particulars: 40° C., 27.58 MPa, 4 hours; cited from earlier work.
Experiment [5] deals with G. stearothermophilus spores. The settings on record: 40° C., 27.58 MPa, 4 hours; cited from earlier work.

For `O=C=O` [pure SC-CO2, carbon dioxide], the “killing of S. aureus” value in experiment [1] (in hydrogel, 4 hours) was “Complete killing”; in experiment [1] (in hydrogel, 30 minutes) it was “complete kill”; in experiment [1] (in hydrogel, 60 minutes) it was “complete kill”. In addition, the “D-value (D40) of S. aureus” value in experiment [1] (in hydrogel) is 4.6 min. For the same compound, the “time required to obtain 6-log reduction of S. aureus” value in experiment [1] (in hydrogel) is “about 27.4 minutes”. For the same compound, the “log-reduction of S. aureus” value came to 1.94 log in experiment [1] (in hydrogel, 10 minutes); 3.42 log in experiment [1] (in hydrogel, 15 minutes); 4.13 log in experiment [1] (in hydrogel, 20 minutes). Besides, in experiment [1] (in poly(acrylic acid-co-acrylamide) hydrogel, 4 hours), the “average log-reduction of S. aureus” value worked out at 7.72 log. Moreover, the “log reduction of B. atrophaeus spores” value in experiment [2] was 6 log. Moreover, the “killing of E. coli” value in experiment [3] (in hydrogel) was “Complete killing”. For the same compound, the “average log-reduction of E. coli” value in experiment [3] (in poly(acrylic acid-co-acrylamide) hydrogel) was 7.93 log. Besides, the “log reduction of B. pumilus spores” value in experiment [4] was 6 log. The “log reduction of G. stearothermophilus spores” value in experiment [5] is recorded as 6 log.
